Key:
[1] = Tested for the safety in rats reported as minimum lethal dose; mortality rate=0/3; type: ADME; conditions: rat, in vivo
Rattus norvegicus [2] = assay: Tested for minimum effective dose in D-(+)-Galactosamine/ LPS-induced hepatitis model in rat after intravenous dosage of 1 g/ 7.5 ug/ 5 mL/kg; survival rate=7/18; type: functional; conditions: read-out: MED
Rattus norvegicus [3] = assay: Tested for the inhibition of Inhibitor of Tumor necrosis factor alpha production after intravenous administration to rat; type: functional; conditions: read-out: ID50 (the source's name)
Mus musculus [4] = assay: Tested for minimum effective dose in LPS-induced shock model in mice after intravenous administration at a dose of 5 mg / kg; survival rate=10/18; type: functional; conditions: read-out: MED
Rattus norvegicus [5] = assay: Tested for the inhibition of umor necrosis factor alpha production after intravenous administration at the dosage of 30 mg/kg to rat; type: functional
Rattus norvegicus [6] = assay: Tested for the inhibition of Tumor necrosis factor alpha production after intravenous administration to rat; type: functional; conditions: read-out: ID50 (the source's name)
Mus musculus [7] = assay: Tested for the inhibition of Tumor necrosis factor alpha production after intravenous administration in mice; type: functional; conditions: read-out: ID50 (the source's name)
Mus musculus [8] = assay: Tested for the inhibition of Tumor necrosis factor alpha production after intravenous administration at the dosage of 10 mg/kg to mice; no activity was observed; type: functional
Rattus norvegicus [9] = assay: Tested for the inhibition of Tumor necrosis factor alpha production after intravenous administration at the dosage of 10 mg/kg to rat; type: functional; conditions: for inhibition in vivo at 10 mg/kg: Rattus norvegicus
Mus musculus [10] = assay: Tested for minimum effective dose in LPS-induced shock model in mice after intravenous administration at a dose of 5 mg / kg; survival rate=14/20; type: functional; conditions: read-out: MED
Rattus norvegicus [11] = assay: Tested for minimum effective dose in D-(+)-Galactosamine/ LPS-induced hepatitis model in rat after intravenous dosage of 1 g/ 7.5 ug/ 5 mL/kg; survival rate=6/18; type: functional; conditions: read-out: MED
Rattus norvegicus [12] = assay: Tested for minimum effective dose in D-(+)-Galactosamine/ LPS-induced hepatitis model in rat after intravenous dosage of 1 g/ 7.5 ug/ 5 mL/kg; survival rate=8/18; type: functional; conditions: read-out: MED
[13] = Tested for the safety in rats reported as minimum lethal dose; mortality rate=1/3; type: ADME; conditions: rat, in vivo

CCCCCCCC(=O)N[C@H](c1cccc(OC)c1)[C@H](C)OP(=O)([O-])[O-].[Na+].[Na+]
MLD [1]: > 100 mg/kg
minimal effective dose (Rattus norvegicus [2]): 0.3 mg/kg
ED50 (Rattus norvegicus [3]): 0.03 mg/kg
minimal effective dose (Mus musculus [4]): 0.1 mg/kg

CCCCCCCC(=O)N[C@@H](c1ccccc1)[C@@H](C)OP(=O)(O)O
inhibition in vivo at 30 mg/kg (Rattus norvegicus [5]): 5%

CCCCCCCC(=O)N[C@@H](c1cccc(OC)c1)[C@H](C)OP(=O)([O-])[O-].[Na+].[Na+]
ED50 (Rattus norvegicus [6]): 3.7 mg/kg

CCCCCCCC(=O)N[C@H](c1ccccc1)C1(OP(=O)([O-])[O-])CCC1.[Na+].[Na+]
ED50 (Mus musculus [7]): 9.5 mg/kg

CCCCCCCC(=O)N[C@@H](COP(=O)([O-])[O-])c1ccccc1.[Na+].[Na+]
ED50 (Rattus norvegicus [6]): 3 mg/kg

CCCCCCCC(=O)N[C@@H](CO)c1ccccc1
inhibition in vivo at 10 mg/kg (Mus musculus [8]): 14%

CCCCCCCC(=O)N[C@@H](c1ccccc1)[C@H](C)OP(=O)(O)O
inhibition in vivo at 30 mg/kg (Rattus norvegicus [5]): 17%

CCCCCCCC(=O)N[C@H](c1ccccc1)[C@H](CO)OP(=O)(O)O
inhibition in vivo at 10 mg/kg (Rattus norvegicus [9]): 42%

CCCCCCCC(=O)N(C)[C@@H](COP(=O)([O-])[O-])c1ccccc1.[Na+].[Na+]
ED50 (Rattus norvegicus [6]): 9.8 mg/kg

CCCCCCCC(=O)N[C@H](c1cccc(OC)c1)C(C)(C)OP(=O)(O)O
inhibition in vivo at 10 mg/kg (Rattus norvegicus [9]): 12%

CCCCCCOC(=O)N[C@H](c1cccc(OC)c1)[C@H](C)OP(=O)([O-])[O-].[Na+].[Na+]
ED50 (Rattus norvegicus [6]): 0.02 mg/kg
MLD [1]: > 100 mg/kg
minimal effective dose (Mus musculus [10]): 0.1 mg/kg
minimal effective dose (Rattus norvegicus [11]): 0.1 mg/kg

CCCCCCCC(=O)N[C@H](c1ccccc1)[C@@H](C)OP(=O)(O)O
inhibition in vivo at 30 mg/kg (Rattus norvegicus [5]): 23%

CCCCCCCC(=O)N[C@@H]1c2ccccc2C[C@@H]1OP(=O)([O-])[O-].[Na+].[Na+]
Inhibition (Rattus norvegicus [9]): 34%

CCCCCCCC(=O)N[C@H](c1ccccc1)[C@@H](OP(=O)(O)O)c1ccccc1
inhibition in vivo at 10 mg/kg (Rattus norvegicus [9]): 3%

CCCCCCCC(=O)N[C@H](c1cccc(OC)c1)[C@@H](C)OP(=O)(O)O
inhibition in vivo at 10 mg/kg (Rattus norvegicus [9]): -13%

CCCCCCCC(=O)N[C@@H](c1cccc(OC)c1)[C@@H](C)OP(=O)(O)O
inhibition in vivo at 10 mg/kg (Rattus norvegicus [9]): 38%

CCCCCCCC(=O)N[C@@H](COP(=O)([O-])[O-])c1cccc(OC)c1.[Na+].[Na+]
ED50 (Rattus norvegicus [6]): 0.26 mg/kg

CCCCCCCC(=O)N[C@H](c1ccccc1)[C@H](C)OP(=O)([O-])[O-].[Na+].[Na+]
ED50 (Rattus norvegicus [6]): 4.5 mg/kg

CCCCCCCC(=O)N[C@H](c1cccc(OC(C)C)c1)[C@H](C)OP(=O)([O-])[O-].[Na+].[Na+]
ED50 (Rattus norvegicus [6]): 0.05 mg/kg
minimal effective dose (Rattus norvegicus [12]): 0.3 mg/kg
minimal effective dose (Mus musculus [4]): 0.3 mg/kg
MLD [13]: 100 mg/kg

CCCCCCCC(=O)N[C@@H]1c2ccccc2C[C@H]1OP(=O)([O-])[O-].[Na+].[Na+]
ED50 (Rattus norvegicus [6]): 2.4 mg/kg
